From US20050215551A1, “1-[2H-1-benzopyran-2-one-8-yl]- piperazine derivatives for the treatment of movement disorders” (SOLVAY PHARMACEUTICALS B.V., priority 2004, published 2005)

Experiments:
δ-opiate = δ-opiate (Rattus norvegicus, UniProt P33533); experiment: Receptor binding δ-opiate; conditions: radioligand [3H]-DPDPE, read-out: Ki(nM) Compound 1
Experimental: (§1) Receptor binding data were obtained by CEREP (128, rue Danton, 92500 Rueil-Malmaison, France) or at Solvay Pharmaceuticals B.V., using well documented standard procedures. Affinity for 5-HT1A receptors for instance, was determined by testing the ability of the compounds of the invention to displace [^3H]-2-(di-n-propylamino)-8-hydroxytetralin ([^3H]-8-OH-DPAT) from its specific binding sites in rat frontal cortex homogenates. This test is based on the method described by Gozlan et al. (Nature, 305, (1983), pages 140-142).
(§2) The binding data collected in the table below were either obtained by CEREP (128, rue Danton, 92500 Rueil-Malmaison, France) or at Solvay Pharmaceuticals B.V., using well documented standard procedures.

Adenosine-A2A = Adenosine-A2A (Homo sapiens, UniProt P29274); experiment: Receptor binding Adenosine-A2A; conditions: radioligand [3H]-CGS 21680, read-out: Ki(nM) Compound 1
Sequence of Adenosine-A2A (P29274 whole entry): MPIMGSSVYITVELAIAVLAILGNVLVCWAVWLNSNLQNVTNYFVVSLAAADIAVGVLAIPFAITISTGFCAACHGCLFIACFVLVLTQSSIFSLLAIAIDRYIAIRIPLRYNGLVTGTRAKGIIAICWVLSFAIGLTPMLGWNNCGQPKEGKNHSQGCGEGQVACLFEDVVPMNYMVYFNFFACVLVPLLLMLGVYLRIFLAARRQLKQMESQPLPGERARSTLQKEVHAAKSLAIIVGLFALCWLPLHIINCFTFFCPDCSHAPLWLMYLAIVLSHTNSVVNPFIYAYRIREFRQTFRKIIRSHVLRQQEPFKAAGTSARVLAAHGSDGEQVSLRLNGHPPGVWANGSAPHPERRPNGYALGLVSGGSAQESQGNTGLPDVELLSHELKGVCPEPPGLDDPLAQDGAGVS
Experimental: as §1, §2

α1B-adrenergic = α1B-adrenergic (Rattus norvegicus, UniProt P15823); experiment: Receptor binding α1B-adrenergic; conditions: radioligand [3H]-prazosin, read-out: Ki(nM) Compound 1
Sequence of α1B-adrenergic (P15823 whole entry): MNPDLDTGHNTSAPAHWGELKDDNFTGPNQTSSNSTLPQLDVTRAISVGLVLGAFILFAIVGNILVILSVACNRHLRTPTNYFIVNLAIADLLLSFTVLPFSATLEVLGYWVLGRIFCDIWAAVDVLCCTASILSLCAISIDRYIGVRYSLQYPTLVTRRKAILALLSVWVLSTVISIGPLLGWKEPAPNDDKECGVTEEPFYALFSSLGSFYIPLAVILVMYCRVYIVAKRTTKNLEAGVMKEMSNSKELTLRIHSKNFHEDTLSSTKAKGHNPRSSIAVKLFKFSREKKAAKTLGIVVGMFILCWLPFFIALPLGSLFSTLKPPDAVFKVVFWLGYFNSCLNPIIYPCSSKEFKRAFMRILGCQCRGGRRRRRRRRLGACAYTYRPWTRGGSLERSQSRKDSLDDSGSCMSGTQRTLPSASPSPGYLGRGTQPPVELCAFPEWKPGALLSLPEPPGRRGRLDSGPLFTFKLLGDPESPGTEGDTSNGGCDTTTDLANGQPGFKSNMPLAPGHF
Experimental: as §1, §2

Muscarine-M2 = Muscarine-M2 (Homo sapiens, UniProt P08172); experiment: Receptor binding Muscarine-M2; conditions: radioligand [3H]-AFDX-384, read-out: Ki(nM) Compound 1
Experimental: as §1, §2

5-HT2B = 5-HT2B (Homo sapiens, UniProt P41595); experiment: Receptor binding 5-HT2B; conditions: radioligand [3H]-LSD, read-out: Ki(nM) Compound 1
Experimental: as §1, §2

Neurokinin-NK2 = Neurokinin-NK2 (Homo sapiens, UniProt P21452); experiment: Receptor binding Neurokinin-NK2; conditions: radioligand [125I]-neurokininA, read-out: Ki(nM) Compound 1
Sequence of Neurokinin-NK2 (P21452 whole entry): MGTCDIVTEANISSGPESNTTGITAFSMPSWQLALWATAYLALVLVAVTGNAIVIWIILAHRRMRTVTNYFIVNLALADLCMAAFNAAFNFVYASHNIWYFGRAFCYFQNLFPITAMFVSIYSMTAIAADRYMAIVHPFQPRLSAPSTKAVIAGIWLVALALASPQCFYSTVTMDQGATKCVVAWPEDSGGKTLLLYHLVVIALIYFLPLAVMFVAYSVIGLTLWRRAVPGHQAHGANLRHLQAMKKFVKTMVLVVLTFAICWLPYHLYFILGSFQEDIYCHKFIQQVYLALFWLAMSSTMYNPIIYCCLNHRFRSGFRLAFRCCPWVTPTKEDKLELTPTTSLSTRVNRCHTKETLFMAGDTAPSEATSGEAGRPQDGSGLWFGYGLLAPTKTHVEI
Experimental: as §1, §2

CCKB = CCKB (Homo sapiens, UniProt P32239); experiment: Receptor binding CCKB; conditions: radioligand [3H]-CCK8, read-out: Ki(nM) Compound 1
Sequence of CCKB (P32239 whole entry): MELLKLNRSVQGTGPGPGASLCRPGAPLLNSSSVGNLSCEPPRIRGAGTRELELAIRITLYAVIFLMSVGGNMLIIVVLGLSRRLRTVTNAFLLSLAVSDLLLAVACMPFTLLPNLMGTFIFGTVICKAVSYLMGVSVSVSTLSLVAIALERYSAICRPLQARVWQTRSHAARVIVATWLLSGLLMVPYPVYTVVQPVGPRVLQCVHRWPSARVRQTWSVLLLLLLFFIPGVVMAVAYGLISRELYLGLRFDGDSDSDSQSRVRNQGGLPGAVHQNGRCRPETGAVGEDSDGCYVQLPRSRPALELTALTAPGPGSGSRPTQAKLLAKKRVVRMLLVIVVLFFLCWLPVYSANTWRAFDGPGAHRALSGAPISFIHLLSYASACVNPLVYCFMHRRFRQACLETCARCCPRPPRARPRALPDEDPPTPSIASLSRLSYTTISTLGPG
Experimental: as §1, §2

Prostaglandin-I2 = Prostaglandin-I2 (Homo sapiens, UniProt P43119); experiment: Receptor binding Prostaglandin-I2; conditions: radioligand [3H]-iloprost, read-out: Ki(nM) Compound 1
Experimental: as §1, §2

Dopamine-D3 = Dopamine-D3 (Homo sapiens, UniProt P35462); experiment: Receptor binding Dopamine-D3; conditions: radioligand [3H]-spiperone, read-out: Ki(nM) Compound 1
Sequence of Dopamine-D3 (P35462 whole entry): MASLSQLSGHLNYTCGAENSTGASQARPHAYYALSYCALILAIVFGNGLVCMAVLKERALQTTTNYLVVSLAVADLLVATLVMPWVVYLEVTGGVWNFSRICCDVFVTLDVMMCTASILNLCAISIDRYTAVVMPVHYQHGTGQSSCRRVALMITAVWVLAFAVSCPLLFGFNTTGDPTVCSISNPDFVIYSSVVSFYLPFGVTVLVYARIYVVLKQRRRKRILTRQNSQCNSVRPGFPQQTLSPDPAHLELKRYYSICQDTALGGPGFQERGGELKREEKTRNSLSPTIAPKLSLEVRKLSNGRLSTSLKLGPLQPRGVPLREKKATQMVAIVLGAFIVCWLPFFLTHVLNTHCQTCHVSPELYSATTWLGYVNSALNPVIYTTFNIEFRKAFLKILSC
Experimental: as §1, §2

CCR1 = CCR1 (Homo sapiens, UniProt P32246); experiment: Receptor binding CCR1; conditions: radioligand [125I]-MIP-1a, read-out: Ki(nM) Compound 1
Sequence of CCR1 (P32246 whole entry): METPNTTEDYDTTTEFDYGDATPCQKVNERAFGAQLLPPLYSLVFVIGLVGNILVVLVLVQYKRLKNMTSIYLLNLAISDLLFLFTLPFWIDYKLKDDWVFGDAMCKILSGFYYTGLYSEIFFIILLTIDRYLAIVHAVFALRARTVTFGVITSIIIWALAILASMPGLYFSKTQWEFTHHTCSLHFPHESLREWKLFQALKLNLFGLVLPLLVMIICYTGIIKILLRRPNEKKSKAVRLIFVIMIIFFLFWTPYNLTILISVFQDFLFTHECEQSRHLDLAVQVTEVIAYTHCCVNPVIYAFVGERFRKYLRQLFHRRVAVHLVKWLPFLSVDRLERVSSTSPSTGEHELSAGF
Experimental: as §1, §2

Histamine-H1 = Histamine-H1 (Homo sapiens, UniProt P35367); experiment: Receptor binding Histamine-H1; conditions: radioligand [3H]-pyrilamine, read-out: Ki(nM) Compound 1
Experimental: as §1, §2

Vasopressine-V1A = Vasopressine-V1A (Homo sapiens, UniProt P37288); experiment: Receptor binding Vasopressine-V1A; conditions: radioligand [3H]-vasopressine, read-out: Ki(nM) Compound 1
Experimental: as §1, §2

5-HT4 = 5-HT4 (Homo sapiens, UniProt Q13639); experiment: Receptor binding 5-HT4; conditions: radioligand [3H]-GR 113808, read-out: Ki(nM) Compound 1
Sequence of 5-HT4 (Q13639 whole entry): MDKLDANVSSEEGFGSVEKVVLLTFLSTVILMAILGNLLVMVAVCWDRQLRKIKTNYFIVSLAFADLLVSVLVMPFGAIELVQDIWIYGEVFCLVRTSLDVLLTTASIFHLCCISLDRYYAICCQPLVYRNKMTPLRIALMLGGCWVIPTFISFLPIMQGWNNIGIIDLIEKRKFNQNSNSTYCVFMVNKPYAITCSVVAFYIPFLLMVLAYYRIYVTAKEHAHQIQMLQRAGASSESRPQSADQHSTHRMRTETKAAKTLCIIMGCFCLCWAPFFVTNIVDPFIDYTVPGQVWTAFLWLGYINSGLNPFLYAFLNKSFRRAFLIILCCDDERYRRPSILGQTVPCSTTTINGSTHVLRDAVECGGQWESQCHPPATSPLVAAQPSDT
Experimental: as §1, §2

Endothelin-ETA = Endothelin-ETA (Homo sapiens, UniProt P25101); experiment: Receptor binding Endothelin-ETA; conditions: radioligand [125I]-endothelin-1, read-out: Ki(nM) Compound 1
Sequence of Endothelin-ETA (P25101 21-427): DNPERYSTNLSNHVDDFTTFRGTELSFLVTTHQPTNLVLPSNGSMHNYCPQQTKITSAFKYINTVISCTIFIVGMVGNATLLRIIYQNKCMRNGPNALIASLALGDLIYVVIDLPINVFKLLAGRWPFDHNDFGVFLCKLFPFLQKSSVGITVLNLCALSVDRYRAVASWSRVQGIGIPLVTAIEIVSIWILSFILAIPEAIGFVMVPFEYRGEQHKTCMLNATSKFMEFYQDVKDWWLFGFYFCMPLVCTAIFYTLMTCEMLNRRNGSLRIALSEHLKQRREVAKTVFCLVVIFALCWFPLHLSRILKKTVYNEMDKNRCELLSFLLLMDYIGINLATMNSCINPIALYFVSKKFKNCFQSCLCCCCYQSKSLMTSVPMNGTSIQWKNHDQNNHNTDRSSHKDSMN
Experimental: as §1, §2

sigma-SG1 = sigma-SG1 (Cavia porcellus, UniProt Q60492); experiment: Receptor binding sigma-SG1; conditions: radioligand [3H]-pentazocone; guinea pig; read-out: Ki(nM) Compound 1
Sequence of sigma-SG1 (Q60492 whole entry): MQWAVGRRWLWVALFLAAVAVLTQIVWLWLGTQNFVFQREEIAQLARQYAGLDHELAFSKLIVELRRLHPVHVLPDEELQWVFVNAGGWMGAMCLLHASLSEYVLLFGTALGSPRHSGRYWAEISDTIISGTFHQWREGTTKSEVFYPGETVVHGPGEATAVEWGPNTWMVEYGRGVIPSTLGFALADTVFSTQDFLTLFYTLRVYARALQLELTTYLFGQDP
Experimental: as §1, §2

DBA/2 mice = experiment: Interaction studies in DBA/2 mice: Compound 1 + vehicle, sumatriptan or SB 258741 (audiogenic seizures); assay type: in vivo; conditions: for Percentage of animal response, Clonic seizures / Percentage of animal response, Tonic extension: 30 min
Experimental: The experiments are performed according to the method previously described by De Sarro et al. (1984), Eur. J. Pharmacol., 104, 55-60. Compounds of the invention or vehicle (controls) are given intraperitoneally (i.p.) and orally (p.o.) as freshly sonicated solutions in methylcellulose 1%. For the i.p. treatment compounds of the invention are given at doses of 0.1, 0.3, 3, 10, 15, 20 and 30 mg/kg; pretreatment time at 30 and 60 min., For oral treatment, all animals are pretreated either at 30 or 60 min using the compounds of the invention at doses of 0.1, 0.3, 3, 6 and 10 mg/kg p.o. At least 10 mice per dose are used. After pretreatment time, each mouse is placed under a hemispheric perspex dome (58 cm in diameter) and 1 min is allowed for habituation and assessment of locomotor activity. Animals are challenged with a 12-16 kHz sinusoidal tone at 109 dB. Seizure response is assessed by two independent observers. The sound evoked behaviour is coded using the following scale: 0=no response, 1=wild running, 2=clonus, 3=tonic flexor and/or extensor; 4=respiratory arrest, on the basis of the concordant opinion of the observers. […] The maximum response is recorded for each animal. Rectal temperature is recorded immediately prior to auditory testing using an Elektrolaboratoriet thermometer type T.E.3. Behavioral changes are observed during the period between drug administration and auditory testing. In these experiments separate vehicle-treated and drug-treated groups are used at each pretreatment time (15 min-60 min). Percentage of mice showing wild running, clonic or tonic phase and the duration of anticonvulsant activity are compared to control group and statistically analyzed.

CRF = CRF (Homo sapiens, UniProt P34998); experiment: Receptor binding CRF; conditions: radioligand [125I]-oCRF, read-out: Ki(nM) Compound 1
Experimental: as §1, §2

VIP1 = VIP1 (Homo sapiens, UniProt P32241); experiment: Receptor binding VIP1; conditions: radioligand [125I]-VIP, read-out: Ki(nM) Compound 1
Sequence of VIP1 (P32241 31-457): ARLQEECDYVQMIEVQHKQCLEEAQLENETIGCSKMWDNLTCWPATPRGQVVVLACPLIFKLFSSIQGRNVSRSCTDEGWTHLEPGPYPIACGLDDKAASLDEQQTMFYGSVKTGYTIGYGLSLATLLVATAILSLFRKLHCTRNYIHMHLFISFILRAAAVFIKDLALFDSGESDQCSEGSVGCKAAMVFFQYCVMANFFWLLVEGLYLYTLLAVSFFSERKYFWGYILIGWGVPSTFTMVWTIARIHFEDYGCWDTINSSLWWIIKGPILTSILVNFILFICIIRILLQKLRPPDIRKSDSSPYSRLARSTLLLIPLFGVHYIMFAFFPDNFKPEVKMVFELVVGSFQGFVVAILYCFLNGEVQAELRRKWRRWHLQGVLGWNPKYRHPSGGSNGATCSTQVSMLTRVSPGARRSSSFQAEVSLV
Experimental: as §1, §2

5-HT6 = 5-HT6 (Homo sapiens, UniProt P50406); experiment: Receptor binding 5-HT6; conditions: radioligand [3H]-LSD, read-out: Ki(nM) Compound 1
Sequence of 5-HT6 (P50406 whole entry): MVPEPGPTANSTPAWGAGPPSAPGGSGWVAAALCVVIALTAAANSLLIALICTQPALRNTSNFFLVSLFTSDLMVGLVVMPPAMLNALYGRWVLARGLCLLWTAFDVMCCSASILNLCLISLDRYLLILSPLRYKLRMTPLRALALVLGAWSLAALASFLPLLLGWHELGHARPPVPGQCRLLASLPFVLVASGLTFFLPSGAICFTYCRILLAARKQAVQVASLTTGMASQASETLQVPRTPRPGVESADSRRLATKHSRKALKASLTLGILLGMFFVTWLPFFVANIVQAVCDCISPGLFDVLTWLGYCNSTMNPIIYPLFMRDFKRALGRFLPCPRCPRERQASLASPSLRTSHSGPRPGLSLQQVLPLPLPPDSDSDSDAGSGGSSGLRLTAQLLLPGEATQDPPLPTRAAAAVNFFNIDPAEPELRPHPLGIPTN
Experimental: as §1, §2

Neuropeptide Y2 = Neuropeptide Y2 (Homo sapiens, UniProt P49146); experiment: Receptor binding Neuropeptide Y2; conditions: radioligand [125I]-PYY, read-out: Ki(nM) Compound 1
Sequence of Neuropeptide Y2 (P49146 whole entry): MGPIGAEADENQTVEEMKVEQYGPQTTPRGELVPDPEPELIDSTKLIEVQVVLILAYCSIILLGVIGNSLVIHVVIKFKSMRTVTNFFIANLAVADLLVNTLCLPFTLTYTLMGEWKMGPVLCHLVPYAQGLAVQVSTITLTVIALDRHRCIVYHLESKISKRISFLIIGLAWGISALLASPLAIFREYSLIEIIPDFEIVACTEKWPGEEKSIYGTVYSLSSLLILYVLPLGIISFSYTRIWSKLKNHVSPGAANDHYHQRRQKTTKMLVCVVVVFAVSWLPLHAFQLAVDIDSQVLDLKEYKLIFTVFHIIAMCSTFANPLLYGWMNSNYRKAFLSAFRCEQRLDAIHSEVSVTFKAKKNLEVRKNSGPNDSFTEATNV
Experimental: as §1, §2

[1] = dose of Compound 1 0.3 mg/kg i.p.
[2] = dose of Compound 1 3 mg/kg i.p.
[3] = dose of Compound 1 10 mg/kg i.p.
[4] = dose of Compound 1 15 mg/kg i.p.
[5] = dose of Compound 1 20 mg/kg i.p.

Nc1cc2cccc(N3CCNCC3)c2oc1=O [Compound 1, 3-amino-8-(1-piperazinyl)-2H-1-benzopyran-2-one]
Ki (δ-opiate): > 1000 nM
Ki (Adenosine-A2A): > 1000 nM
Ki (α1B-adrenergic): > 1000 nM
Ki (Muscarine-M2): > 1000 nM
Ki (5-HT2B): 320 nM
Ki (Neurokinin-NK2): > 1000 nM
Ki (CCKB): > 1000 nM
Ki (Prostaglandin-I2): > 1000 nM
Ki (Dopamine-D3): > 1000 nM
Ki (CCR1): > 1000 nM
Ki (Histamine-H1): > 1000 nM
Ki (Vasopressine-V1A): > 1000 nM
Ki (5-HT4): > 1000 nM
Ki (Endothelin-ETA): > 1000 nM
Ki (sigma-SG1): > 1000 nM
Percentage of animal response, Clonic seizures (DBA/2 mice; [1]): 90%
Percentage of animal response, Tonic extension (DBA/2 mice; [1]): 60%
Percentage of animal response, Clonic seizures (DBA/2 mice; [2]): 80%
Percentage of animal response, Tonic extension (DBA/2 mice; [2]): 40%
Percentage of animal response, Clonic seizures (DBA/2 mice; [3]): 40%
Percentage of animal response, Tonic extension (DBA/2 mice; [3]): 0%
Percentage of animal response, Clonic seizures (DBA/2 mice; [4]): 20%
Percentage of animal response, Tonic extension (DBA/2 mice; [4]): 0%
Percentage of animal response, Clonic seizures (DBA/2 mice; [5]): 10%
Percentage of animal response, Tonic extension (DBA/2 mice; [5]): 0%
behavioural changes (DBA/2 mice; i.p., all dosages tested): At none of the dosages tested
Ki (CRF): > 10000 nM
Ki (VIP1): > 1000 nM
Ki (5-HT6): > 1000 nM
Ki (Neuropeptide Y2): > 1000 nM
